Twelve molecules from patent publication US12391679B2, “Benzamide-substituted bicyclic imidazo- and pyrazolo-fused -pyridine, -pyrimide, and -pyridazine compounds for treatment of inflammatory diseases” (ONCO3R Therapeutics BV, priority 2019, dated 2025) can be followed below.

This test relates to LPS-induced TNFα in monocytes. The experiment in a line: Monocytes assay: LPS-triggered TNFα (ELISA). It is filed as cell-based, human. The following applies: LPS-triggered TNFα inhibition. The procedure, abridged:
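TNFα secretion was triggered with 200 ng/mL LPS for 4 h in human blood CD14+ monocytes after 1 h compound pretreatment at 37 °C, with 0.2% final DMSO. Supernatants were analysed by streptavidin-HRP/luminol ELISA, and percentage inhibition at each concentration was derived relative to control wells.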

As for `COc1cc(-c2cnc3cc(C(C)(C)C(C)O)ccn23)cc(OC(F)F)c1C(=O)NC1CC1` (stereo not drawn) [Cpd 172, N-cyclopropyl-2-(difluoromethoxy)-4-[7-(2-hydroxy-1,1-dimethyl-propyl)imidazo[1,2-a]pyridin-3-yl]-6-methoxy-benzamide], under “Homo sapiens, Monocyte”, the EC50 (as a rule, the concentration that produces a half-maximal response) lay in the range of 100 to 1000 nM.
As for `COc1cc(-c2cnn3cc(C4CCOCC4)cnc23)cc(OC(F)F)c1C(=O)NC1CC1` [Cpd 95, N-cyclopropyl-2-(difluoromethoxy)-6-methoxy-4-(6-tetrahydropyran-4-ylpyrazolo[1,5-a]pyrimidin-3-yl)benzamide], the EC50 (Homo sapiens, Monocyte) lay in the range of 100 to 1000 nM.
In turn, `COc1cc(-c2cnn3cc(C(C)(C)C#N)ccc23)cc(OC(F)F)c1C(=O)N[C@@H]1C[C@H]1F` (single isomer, unassigned) [Cpd 257, 4-[6-(1-cyano-1-methyl-ethyl)pyrazolo[1,5-a]pyridin-3-yl]-2-(difluoromethoxy)-N-(2-fluorocyclopropyl)-6-methoxy-benzamide] gave an EC50 (Homo sapiens, Monocyte) of 100 to 1000 nM.
The molecule `COc1cc(-c2cnc3cc(C(C)(C)C#N)ccn23)cc(OC(F)F)c1C(=O)NCC1CC1` [Cpd 39, 4-[7-(1-cyano-1-methyl-ethyl)imidazo[1,2-a]pyridin-3-yl]-N-(cyclopropylmethyl)-2-(difluoromethoxy)-6-methoxy-benzamide] displayed an EC50 (Homo sapiens, Monocyte) of 100 to 1000 nM.
The molecule `CC[C@](C)(O)c1ccn2c(-c3cc(OC)c(C(=O)NC4CC4)c(OC(F)F)c3)cnc2c1` (single isomer, unassigned) [Cpd 164, N-cyclopropyl-2-(difluoromethoxy)-4-[7-(1-hydroxy-1-methyl-propyl)imidazo[1,2-a]pyridin-3-yl]-6-methoxy-benzamide] registered an EC50 (Homo sapiens, Monocyte) of 100 to 1000 nM.
In turn, `COc1cc(-c2cnc3cc(C4(O)CCOCC4)ccn23)cc(OC(F)F)c1C(=O)NC1CC1` [Cpd 170, N-cyclopropyl-2-(difluoromethoxy)-4-[7-(4-hydroxytetrahydropyran-4-yl)imidazo[1,2-a]pyridin-3-yl]-6-methoxy-benzamide] registered an EC50 (Homo sapiens, Monocyte) of 1000 to 5000 nM.
The same measure, in the same setting: then `COc1cc(-c2cnc3cc(C4(C#N)CCOCC4)ccn23)cc(OC)c1C(=O)NCC(F)(F)F` [Cpd 107, 4-[7-(4-cyanotetrahydropyran-4-yl)imidazo[1,2-a]pyridin-3-yl]-2,6-dimethoxy-N-(2,2,2-trifluoroethyl)benzamide], with 100 to 1000 nM; and `COc1cc(-c2cnc3cc(C4COC4)ccn23)cc(OC(F)F)c1C(=O)N[C@@H]1C[C@@H]1F` [Cpd 206, 2-(difluoromethoxy)-N-[(1R,2S)-2-fluorocyclopropyl]-6-methoxy-4-[7-(oxetan-3-yl)imidazo[1,2-a]pyridin-3-yl]benzamide], with 100 to 1000 nM; and `COc1cc(-c2cnc3cc(C(C)(C)C#N)ccn23)cc(OC(F)F)c1C(=O)N[C@@H]1C[C@@H]1F` [Cpd 79, 4-[7-(1-cyano-1-methyl-ethyl)imidazo[1,2-a]pyridin-3-yl]-2-(difluoromethoxy)-N-[(1R,2S)-2-fluorocyclopropyl]-6-methoxy-benzamide], with 0.1 to 100 nM.
Consider `COc1cc(-c2cnc3cc([C@@](C)(O)C4CC4)ccn23)cc(OC(F)F)c1C(=O)NC1CC1` (single isomer, unassigned) [Cpd 162, N-cyclopropyl-4-[7-(1-cyclopropyl-1-hydroxy-ethyl)imidazo[1,2-a]pyridin-3-yl]-2-(difluoromethoxy)-6-methoxy-benzamide], for which the EC50 (Homo sapiens, Monocyte) is 100 to 1000 nM.
Same read-out and setting: then `COc1cc(-c2cnc3cc(C4(F)COC4)ccn23)cc(OC(F)F)c1C(=O)NC1CC1` [Cpd 207, N-cyclopropyl-2-(difluoromethoxy)-4-[7-(3-fluorooxetan-3-yl)imidazo[1,2-a]pyridin-3-yl]-6-methoxy-benzamide], with 100 to 1000 nM.
`COc1cc(-c2cnc3cc([C@@](C)(C#N)CO)ccn23)cc(OC(F)F)c1C(=O)NC1CC1` (single isomer, unassigned) [Cpd 189, 4-[7-(1-cyano-2-hydroxy-1-methyl-ethyl)imidazo[1,2-a]pyridin-3-yl]-N-cyclopropyl-2-(difluoromethoxy)-6-methoxy-benzamide] registered an EC50 of 100 to 1000 nM.
